Data on 41 molecules can be found in ChEMBL document CHEMBL1177756, “Design and synthesis of 1,4,5,6-tetrahydropyrrolo[3,4-c]pyrazoles and pyrazolo[3,4-b]pyridines for Aurora-A kinase inhibitors” (Bioorg Med Chem Lett, 2010).

What all share (format): functional, cell-based
One assay deals with HCT-116. Put plainly: Cytotoxicity against human HCT116 cells after 48 hrs by MTT assay. Conditions: HCT-116, 48 h. (In general: Tetrazolium dyes change colour on reduction, which living cells bring about.)
The next assay has as its system A549. Put plainly: Cytotoxicity against human A549 cells after 48 hrs by MTT assay. Particulars: A549, 48 h.
Another assay deals with A2780. Put plainly: Cytotoxicity against human A2780 cells after 48 hrs by MTT assay. Conditions: A2780, 48 h.

By IC50 is commonly meant the concentration needed to halve the response being measured. The low end stands for greater potency, the high end for weaker potency. `CO[C@H](C(=O)N1Cc2[nH]nc(NC(=O)c3ccc4ccccc4c3)c2C1)c1ccccc1`: the IC50 in the assay on HCT-116 stood at 38 µM; with A549, 16 µM; with A2780 it was 23 µM.

As to `Cc1ccccc1C(=O)Nc1n[nH]c2ncc(Br)cc12`, the half-maximal inhibitory concentration (IC50) with HCT-116 is 51.5 µM; in the assay with A549 it was more than 200 µM; in the assay with A2780, more than 200 µM.

As for `O=C(Nc1n[nH]c2ncc(Br)cc12)c1ccccc1C(F)(F)F`, the values for the IC50 in the assay on HCT-116, in the assay on A549 and with A2780 were 40.3 µM, 75.1 µM and more than 200 µM, respectively.

Take `Cc1cccc(C(=O)Nc2n[nH]c3ncc(Br)cc23)c1`: the values for the IC50 in the assay on HCT-116, with A549 and in the assay on A2780 were 25.5 µM, more than 200 µM and 49.9 µM, respectively.

As for `O=C(Nc1n[nH]c2ncc(Br)cc12)c1ccc(F)cc1`, the results for the half-maximal inhibitory concentration (IC50) in the assay with HCT-116, in the assay on A549 and in the assay with A2780 were 44.1 µM, more than 200 µM and 50 µM, respectively.

With `COc1ccccc1C(=O)Nc1n[nH]c2ncc(Br)cc12`, the results for the concentration for half-maximal inhibition (IC50) with HCT-116, in the assay with A549 and in the assay with A2780 were 15.6 µM, more than 200 µM and 27 µM, respectively.

For `COc1ccc(C(=O)Nc2n[nH]c3c2CN(C(=O)[C@@H](OC)c2ccccc2)C3)cc1`, the IC50 was 207 µM with HCT-116, 72 µM in the assay with A549 and more than 200 µM in the assay on A2780.

As to `COc1cc(OC)cc(C(=O)Nc2n[nH]c3ncc(Br)cc23)c1`, the IC50 in the assay on HCT-116 was 19.3 µM; in the assay with A549, 53.7 µM; in the assay on A2780, 37.9 µM.

With `O=C(Nc1n[nH]c2c1CN(C(=O)c1ccccn1)C2)c1cc2c(c(OCc3ccccc3)c1)OCO2`, the IC50 is 104 µM with HCT-116, more than 200 µM in the assay on A549 and more than 200 µM in the assay with A2780.

Take `CO[C@H](C(=O)N1Cc2[nH]nc(NC(=O)c3ccco3)c2C1)c1ccccc1`: the concentration for half-maximal inhibition (IC50) in the assay with HCT-116, with A549 and in the assay on A2780 was more than 200 µM throughout.

Regarding `COc1ccc(C(=O)Nc2n[nH]c3c2CN(C(=O)c2ccccn2)C3)cc1`, the IC50 in the assay on HCT-116, with A549 and in the assay on A2780 was more than 200 µM throughout.

`CO[C@H](C(=O)N1Cc2[nH]nc(NC(=O)c3cc4c(c(OCc5ccccc5)c3)OCO4)c2C1)c1ccccc1`: the 50% inhibitory concentration (IC50) in the assay with HCT-116, in the assay with A549 and in the assay on A2780 was more than 200 µM each time.

In the case of `Cc1ccc(C(=O)Nc2n[nH]c3c2CN(C(=O)c2ccccn2)C3)cc1`, the 50% inhibitory concentration (IC50) with HCT-116, with A549 and with A2780 was more than 200 µM each time.

In the case of `Cc1ccc(C(=O)N2Cc3[nH]nc(NC(=O)c4ccco4)c3C2)cc1`, the half-inhibitory concentration (IC50) in the assay with HCT-116, in the assay with A549 and with A2780 was more than 200 µM throughout.

Turning to `O=C(Cc1ccc(Br)cc1)Nc1n[nH]c2ncc(Br)cc12`, the IC50 in the assay with HCT-116 stood at 31.7 µM; with A549 it was 43.1 µM; in the assay on A2780 it was 22.8 µM.

As to `O=C(Nc1n[nH]c2c1CN(C(=O)c1ccccn1)C2)c1ccc2c(c1)OCO2`, the values for the half-maximal inhibitory concentration (IC50) with HCT-116, in the assay on A549 and in the assay with A2780 were more than 200 µM, 118 µM and more than 200 µM, respectively.

Regarding `CO[C@H](C(=O)N1Cc2[nH]nc(NC(=O)c3ccccc3)c2C1)c1ccccc1`, the concentration for half-maximal inhibition (IC50) in the assay on HCT-116 is 26 µM; with A549, more than 200 µM; in the assay on A2780, more than 200 µM.

On to `Cc1ccc(C(=O)Nc2n[nH]c3c2CN(C(=O)[C@@H](O)c2ccccc2)C3)cc1`, for which the concentration for half-maximal inhibition (IC50) in the assay with HCT-116 worked out at 13 µM; with A549, 42 µM; in the assay on A2780 it was 82 µM.

With `COc1cc(OC)cc(C(=O)Nc2n[nH]c3c2CN(C(=O)[C@@H](OC)c2ccccc2)C3)c1`, the IC50 in the assay with HCT-116 is 103 µM; in the assay with A549, 99 µM; with A2780 it was more than 200 µM.

`O=C(Nc1n[nH]c2ncc(Br)cc12)c1ccco1`: the IC50 with HCT-116 amounted to 43.5 µM; in the assay with A549, 61.9 µM; with A2780, 42 µM.

Regarding `CC(=O)O[C@H](C(=O)N1Cc2[nH]nc(NC(=O)c3cc4c(c(OCc5ccccc5)c3)OCO4)c2C1)c1ccccc1`, the IC50 in the assay on HCT-116, in the assay on A549 and in the assay on A2780 was more than 200 µM in each case.

In the case of `O=C(Nc1n[nH]c2ncc(Br)cc12)c1ccccc1Cl`, the IC50 in the assay with HCT-116 is 32.3 µM; in the assay on A549, more than 200 µM; in the assay on A2780, 46.7 µM.

Take `O=C(Nc1n[nH]c2ncc(Br)cc12)c1ccc(C(F)(F)F)cc1`: the IC50 was 21.9 µM in the assay with HCT-116, more than 200 µM with A549 and more than 200 µM with A2780.

With `CC(=O)N1Cc2[nH]nc(NC(=O)c3ccc4ccccc4c3)c2C1`, the half-maximal inhibitory concentration (IC50) in the assay on HCT-116, in the assay on A549 and in the assay on A2780 was more than 200 µM throughout.

As for `Cc1cccnc1C(=O)Nc1n[nH]c2ncc(Br)cc12`, the results for the IC50 with HCT-116, with A549 and in the assay on A2780 were 23 µM, more than 200 µM and more than 200 µM, respectively.

Consider `O=C(Nc1n[nH]c2c1CN(C(=O)[C@@H](O)c1ccccc1)C2)c1ccco1`, for which the half-inhibitory concentration (IC50) with HCT-116 turned out to be 4 µM; with A549, 25 µM; in the assay on A2780, 35 µM.

On to `COc1cc(OC)cc(C(=O)Nc2n[nH]c3c2CN(c2cccnc2C(C)=O)C3)c1`, for which the IC50 in the assay on HCT-116 was 107 µM; in the assay on A549, 161 µM; with A2780, more than 200 µM.

As for `CC(=O)c1ncccc1N1Cc2[nH]nc(NC(=O)c3ccc4c(c3)OCO4)c2C1`, the half-maximal inhibitory concentration (IC50) in the assay with HCT-116, with A549 and in the assay on A2780 was more than 200 µM in each case.

With `CC(=O)c1ncccc1N1Cc2[nH]nc(NC(=O)c3ccccc3)c2C1`, the IC50 in the assay on HCT-116 was 168 µM; in the assay on A549 it was 175 µM; with A2780, more than 200 µM.

As to `CO[C@H](C(=O)N1Cc2[nH]nc(NC(=O)c3ccc(N4CCN(C)CC4)cc3)c2C1)c1ccccc1`, the 50% inhibitory concentration (IC50) in the assay with HCT-116 was 13 µM; with A549, 43 µM; in the assay with A2780 it was 11 µM.

Regarding `COc1cc(OC)cc(C(=O)Nc2n[nH]c3c2CN(C(=O)c2ccccn2)C3)c1`, the IC50 was 236 µM with HCT-116, more than 200 µM with A549 and more than 200 µM in the assay with A2780.

As for `Cc1ccc(C(=O)N2Cc3[nH]nc(NC(=O)c4ccc5ccccc5c4)c3C2)cc1`, the IC50 in the assay with HCT-116, with A549 and in the assay with A2780 was more than 200 µM throughout.

Turning to `O=C(Nc1n[nH]c2c1CN(C(=O)[C@@H](O)c1ccccc1)C2)c1ccc2c(c1)OCO2`, the half-inhibitory concentration (IC50) with HCT-116 was 135 µM; with A549 it was 84 µM; in the assay with A2780, more than 200 µM.

Consider `COc1ccc(C(=O)Nc2n[nH]c3ncc(Br)cc23)cc1`, for which the IC50 is 24.9 µM with HCT-116, more than 200 µM in the assay on A549 and more than 200 µM in the assay with A2780.

Take `COc1cc(OC)cc(C(=O)Nc2n[nH]c3c2CN(C(=O)[C@@H](O)c2ccccc2)C3)c1`: the values for the concentration for half-maximal inhibition (IC50) in the assay with HCT-116, with A549 and with A2780 were 143 µM, 76 µM and more than 200 µM, respectively.

As to `O=C(Nc1n[nH]c2c1CN(C(=O)c1ccco1)C2)c1ccc2ccccc2c1`, the IC50 in the assay with HCT-116 came out at 45 µM; in the assay with A549 it was 34 µM; with A2780, 54 µM.

As to `O=C(Nc1n[nH]c2ncc(Br)cc12)c1ccccn1`, the IC50 with HCT-116 turned out to be 14.3 µM; in the assay with A549, 45.2 µM; in the assay on A2780, 46.5 µM.

Consider `O=C(Nc1n[nH]c2ncc(Br)cc12)c1ccc(Cl)cc1`, for which the IC50 in the assay with HCT-116 is 34.7 µM; with A549, 51.4 µM; in the assay on A2780, 51.6 µM.

On to `O=C(Nc1n[nH]c2ncc(Br)cc12)c1cc(Cl)cc(Cl)c1`, for which the IC50 is 49.2 µM in the assay with HCT-116, more than 200 µM with A549 and more than 200 µM in the assay on A2780.

As for `CO[C@H](C(=O)N1Cc2[nH]nc(NC(=O)c3ccc4c(c3)OCO4)c2C1)c1ccccc1`, the half-inhibitory concentration (IC50) with HCT-116, in the assay on A549 and in the assay on A2780 was more than 200 µM throughout.

For the molecule `Cc1ccc(C(=O)Nc2n[nH]c3ncc(Br)cc23)cc1`, the 50% inhibitory concentration (IC50) in the assay with HCT-116 is 39.8 µM; with A549, more than 200 µM; with A2780 it was more than 200 µM.
